We go through 3 substances from patent publication US4703039A, “Method of producing biologically active molecules having extended life time” (New England Deaconess Hospital Corporation, priority 1985, dated 1987).

Assay [1] has as its system ADP-modified human platelet receptor site for fibrinogen. The assay is described as follows: Inhibition of 125I-fibrinogen binding to ADP-treated human platelets. Particulars: 10^8 human platelets/0.55 ml treated with 5 mM of ADP, FIG. 8. The method, then: FIG. 3 is a graph showing that the inhibitory effect of the same conjugate is concentration dependent. In this experiment, human platelets were treated with ADP and a variety of concentrations of the conjugate were added to affect inhibition of ^125 I-fibrinogen binding to the platelets. As the concentration of the conjugate increases, inhibition of binding goes from 0 to almost 100%, showing the effectiveness of the conjugate.

In assay [2] the target is T1, ristocetin-modified human platelets (von Willebrand factor binding site) (Homo sapiens, UniProt P07359).
T1 construct: von Willebrand factor to human platelets treated with 0.6 mg/ml ristocetin; endogenous in cells; host or cells: human platelets treated with ristocetin
T1 sequence (P07359 17-652): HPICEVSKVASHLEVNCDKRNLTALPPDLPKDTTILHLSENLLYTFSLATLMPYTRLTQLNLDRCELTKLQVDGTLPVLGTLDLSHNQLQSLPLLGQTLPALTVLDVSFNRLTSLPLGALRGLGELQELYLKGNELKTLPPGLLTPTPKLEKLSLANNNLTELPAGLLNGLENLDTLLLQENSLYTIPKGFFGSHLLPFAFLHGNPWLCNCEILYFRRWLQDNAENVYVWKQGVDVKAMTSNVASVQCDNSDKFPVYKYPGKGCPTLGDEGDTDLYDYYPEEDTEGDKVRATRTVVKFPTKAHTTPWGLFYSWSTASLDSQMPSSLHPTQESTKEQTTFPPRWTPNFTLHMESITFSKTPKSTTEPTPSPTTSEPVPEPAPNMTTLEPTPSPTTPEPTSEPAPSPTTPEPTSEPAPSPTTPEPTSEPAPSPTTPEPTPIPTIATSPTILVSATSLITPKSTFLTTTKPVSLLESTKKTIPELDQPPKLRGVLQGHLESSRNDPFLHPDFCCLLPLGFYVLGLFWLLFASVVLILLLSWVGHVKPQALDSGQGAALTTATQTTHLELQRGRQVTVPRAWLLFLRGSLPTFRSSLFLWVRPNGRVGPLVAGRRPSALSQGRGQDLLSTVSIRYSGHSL
T1 sequence (P13224 26-206 partner): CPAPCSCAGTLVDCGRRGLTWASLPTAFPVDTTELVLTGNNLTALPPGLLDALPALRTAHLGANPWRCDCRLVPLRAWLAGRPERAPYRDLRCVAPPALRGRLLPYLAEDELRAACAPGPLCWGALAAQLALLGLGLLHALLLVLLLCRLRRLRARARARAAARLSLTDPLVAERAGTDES
T1 sequence (P14770 17-177 partner): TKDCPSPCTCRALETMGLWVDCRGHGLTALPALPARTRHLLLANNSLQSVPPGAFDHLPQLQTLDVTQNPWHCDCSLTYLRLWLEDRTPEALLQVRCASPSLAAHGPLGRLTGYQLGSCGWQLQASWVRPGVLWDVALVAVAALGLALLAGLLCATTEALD
T1 sequence (P40197 17-560 partner): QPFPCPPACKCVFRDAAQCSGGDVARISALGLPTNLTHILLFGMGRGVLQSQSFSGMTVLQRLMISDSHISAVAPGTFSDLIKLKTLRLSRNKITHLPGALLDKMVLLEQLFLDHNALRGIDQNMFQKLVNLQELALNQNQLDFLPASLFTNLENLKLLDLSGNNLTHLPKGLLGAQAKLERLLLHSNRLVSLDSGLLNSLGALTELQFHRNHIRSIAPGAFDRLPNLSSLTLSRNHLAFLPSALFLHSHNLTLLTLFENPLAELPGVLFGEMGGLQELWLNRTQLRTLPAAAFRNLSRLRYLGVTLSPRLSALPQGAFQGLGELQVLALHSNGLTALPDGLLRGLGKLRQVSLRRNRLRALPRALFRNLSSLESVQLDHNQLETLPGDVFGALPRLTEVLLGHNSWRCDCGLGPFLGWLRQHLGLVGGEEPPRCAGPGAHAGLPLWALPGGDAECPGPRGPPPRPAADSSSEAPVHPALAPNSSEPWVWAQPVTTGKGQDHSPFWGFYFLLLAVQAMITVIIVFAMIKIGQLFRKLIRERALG
The assay can be described thus: Inhibition of 125I-labelled von Willebrand factor binding to ristocetin-treated human platelets. Particulars: human platelets treated with 0.6 mg/ml ristocetin, FIG. 8.

Assay [3] concerns the target T2, ADP-modified human platelets (von Willebrand factor binding site) (Homo sapiens, UniProt P05106+P08514).
T2 construct: 10^8 human platelets/0.55 ml treated with 5 mM of ADP; endogenous in cells; host or cells: human platelets treated with ADP
The assay is described as follows: Inhibition of 125I-labelled von Willebrand factor binding to ADP-treated human platelets. The settings on record: 10^8 human platelets/0.55 ml treated with 5 mM of ADP, 14 μg 125I-von Willebrand factor, FIG. 8. The procedure:
This Example illustrates that a peptide can be used to inhibit binding of von Willebrand factor to ADP-treated human platelets. FIG. 8 illustrates the level of inhibition of ^125 I-labelled von Willebrand factor or fibrinogen binding to ADP-modified human platelets by incubation with a synthetic dodecapeptide

Assay [4] has as its system hemostatic plug formation. The assay is described as follows: In vivo rabbit superior mesenteric artery perfusion, bleeding time. The settings on record: FIG. 11. The procedure: This Example illustrates an in vivo model of mesentric artery perfusion in a rabbit. The experimental model employed involved anesthesized white New Zealand rabbits, weighing about 2.0 kg, and fed standard diet. The right femoral artery was canulated for blood pressure measurement and blood sampling. A midline abdominal incision was made to exteriorize the small intestine, the mesentery was draped over a microscope table, and superfused continuously with saline at 37° C. […] Small arteries of 100-200 μm external diameter were cut one third across with a surgical blade at the junction of the mesentery with the intestine. The time in seconds was determined from incision until the bleeding was arrested by a spontaneously formed hemostatic plug. Infusions of selected agents tested for their effects on platelet activation were through the mesenteric cannula with a constant volume Harvard pump at a flow rate of 0.11 ml/min. Three animals were used for each dose unless otherwise indicated. Blood pressure, hematocrit, and platelet count were measured prior to and after bleeding time determinations.

The subject of assay [5] is ADP-treated human platelets. The assay is described as follows: Aggregation of ADP-treated human platelets washed free of fibrinogen, by conjugates (percent transmission). In kind it is cell-based. Particulars: FIG. 6 curves b and c. From the text: FIG. 5 illustrates the effectiveness of the divalent conjugate on promoting this inhibition reaction. Human platelets were washed free of fibrinogen and other binding proteins and then treated with ADP. […] The lower curve on FIG. 5 is a control of the identical conjugate with a peptide bound to the human serum albumin that is […] to the receptor site.
This Example illustrates that a polyvalent conjugate can also be manufactured and used in an aggregation reaction. […] Multiple copies of a different peptide, residues 397-411 of the gamma chain of fibrinogen bound to a cysteine residue were conjugated to a human serum albumin backbone. Curve a on FIG. 6 illustrates the aggregation of ADP-treated human platelets by this polyvalent conjugate. […] Curves b and c on FIG. 6 are controls illustrating the effectiveness of the conjugate as an artificial fibrinogen. In Curve b, the "model molecule" was first mixed with Fab fragments of rabbit antibody which had been made against the terminal portion of the gamma chain of human fibrinogen. […] This is evident from the almost flat response shown as Curve b on FIG. 6.
The alternate control, inhibiting the artificial fibrinogen reaction using the peptides themselves, is shown in Curve c. In this reaction, the platelets were mixed with unconjugated peptides and then the conjugate was used in attempt to aggregate the platelets.

Ends that are not written are not given here.

T2 sequence (P08514 32-887 limits assumed): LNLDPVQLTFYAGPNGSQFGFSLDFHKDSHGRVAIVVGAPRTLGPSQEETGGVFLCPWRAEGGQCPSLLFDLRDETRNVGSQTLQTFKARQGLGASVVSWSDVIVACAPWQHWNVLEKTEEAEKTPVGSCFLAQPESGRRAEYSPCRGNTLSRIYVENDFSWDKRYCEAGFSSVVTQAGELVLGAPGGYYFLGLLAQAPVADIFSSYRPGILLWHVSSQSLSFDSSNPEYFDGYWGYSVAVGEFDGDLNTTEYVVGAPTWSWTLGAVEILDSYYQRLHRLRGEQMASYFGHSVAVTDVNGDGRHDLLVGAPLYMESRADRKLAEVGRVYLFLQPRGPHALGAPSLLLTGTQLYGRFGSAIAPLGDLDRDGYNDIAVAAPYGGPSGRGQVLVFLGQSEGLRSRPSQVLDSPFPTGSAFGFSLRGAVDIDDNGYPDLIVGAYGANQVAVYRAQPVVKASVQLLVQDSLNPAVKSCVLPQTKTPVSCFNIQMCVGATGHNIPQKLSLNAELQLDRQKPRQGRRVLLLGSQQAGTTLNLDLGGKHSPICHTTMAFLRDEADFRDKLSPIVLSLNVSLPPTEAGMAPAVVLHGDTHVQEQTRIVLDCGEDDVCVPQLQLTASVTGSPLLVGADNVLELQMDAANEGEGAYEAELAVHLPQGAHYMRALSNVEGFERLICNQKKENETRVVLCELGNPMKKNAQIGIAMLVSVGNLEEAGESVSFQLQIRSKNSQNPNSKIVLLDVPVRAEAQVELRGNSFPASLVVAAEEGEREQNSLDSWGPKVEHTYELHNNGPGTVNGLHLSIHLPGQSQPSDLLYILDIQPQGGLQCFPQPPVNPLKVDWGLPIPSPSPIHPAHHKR
T2 sequence (P08514 891-1039 partner limits assumed): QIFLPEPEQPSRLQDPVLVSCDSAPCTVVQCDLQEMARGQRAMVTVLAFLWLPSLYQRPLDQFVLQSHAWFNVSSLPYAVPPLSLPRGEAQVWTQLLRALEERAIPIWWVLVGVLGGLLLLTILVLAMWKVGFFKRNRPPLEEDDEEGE
T2 sequence (P05106 27-788): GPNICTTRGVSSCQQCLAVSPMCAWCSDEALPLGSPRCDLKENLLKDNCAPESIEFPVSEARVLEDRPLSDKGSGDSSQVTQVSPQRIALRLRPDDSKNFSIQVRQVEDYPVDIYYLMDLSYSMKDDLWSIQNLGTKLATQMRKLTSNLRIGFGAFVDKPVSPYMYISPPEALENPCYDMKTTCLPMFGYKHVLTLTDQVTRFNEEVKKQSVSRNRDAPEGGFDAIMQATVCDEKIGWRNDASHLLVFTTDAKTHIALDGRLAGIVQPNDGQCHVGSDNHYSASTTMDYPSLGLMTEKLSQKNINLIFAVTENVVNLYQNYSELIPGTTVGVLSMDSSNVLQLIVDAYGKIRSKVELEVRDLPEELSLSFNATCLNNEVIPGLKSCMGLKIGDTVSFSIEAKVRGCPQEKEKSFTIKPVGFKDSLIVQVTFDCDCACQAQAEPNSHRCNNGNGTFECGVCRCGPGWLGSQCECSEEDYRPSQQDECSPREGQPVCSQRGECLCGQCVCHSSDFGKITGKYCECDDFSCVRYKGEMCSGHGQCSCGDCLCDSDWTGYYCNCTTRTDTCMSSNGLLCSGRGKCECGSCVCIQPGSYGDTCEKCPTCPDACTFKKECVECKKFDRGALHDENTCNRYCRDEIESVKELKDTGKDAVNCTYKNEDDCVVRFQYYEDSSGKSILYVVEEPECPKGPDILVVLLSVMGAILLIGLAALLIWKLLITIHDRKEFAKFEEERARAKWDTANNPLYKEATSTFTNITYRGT

Consider “HHLGGAKQAGDV [dodecapeptide, H2 N-His-His-Leu-Gly-Gly-Ala-Lys-Gln-Ala-Gly-Asp-Val-C OOH]”, for which the “inhibition of 125I-labelled fibrinogen binding” value in assay [1] is recorded as “substantial binding inhibition”. Besides, the results for the “inhibition of 125I-labelled von Willebrand factor binding” value in assay [2] and in assay [3] were “does not inhibit” and “substantial binding inhibition”, respectively.

Consider HHLGGAKQAGDV [inhibitory peptide], for which the “bleeding time relative to its original time (diluent infusion)” value in assay [4] (infusion through the mesenteric cannula) is on record as “more than double its original time”. Moreover, in assay [4] (said to show clearance of the peptide), the “time to resume original bleeding time after peptide infusion is replaced by diluent” value is “approximately 20 minutes”.

With “unconjugated peptides: the peptides of the polyvalent conjugate themselves, unconjugated (gamma chain residues 397-411 with cysteine)”, in assay [5], the “inhibition of platelet aggregation induced by the polyvalent conjugate (artificial fibrinogen)” value was “aggregation reaction by the artificial fibrinogen conjugate is inhibited”.
